Measured values from PMC8537011 (Journal of Fungi, 2021).

Molecular target: T1, PELa (P. expansum Lactonase) (Penicillium expansum, UniProt A0A0A2K035)
T1 construct: gene PEX2_072460
Experiment: UV absorbance at […] nm, initial rates, Michaelis-Menten fit
Format: biochemical
Conditions: 100 mM Tris-HCl pH 7.5, NaCl, 100 µM ZnCl2, 25 °C; 0.6 μM enzyme, 0-0.4 mM patulin

T1 sequence (A0A0A2K035 entry or part of it): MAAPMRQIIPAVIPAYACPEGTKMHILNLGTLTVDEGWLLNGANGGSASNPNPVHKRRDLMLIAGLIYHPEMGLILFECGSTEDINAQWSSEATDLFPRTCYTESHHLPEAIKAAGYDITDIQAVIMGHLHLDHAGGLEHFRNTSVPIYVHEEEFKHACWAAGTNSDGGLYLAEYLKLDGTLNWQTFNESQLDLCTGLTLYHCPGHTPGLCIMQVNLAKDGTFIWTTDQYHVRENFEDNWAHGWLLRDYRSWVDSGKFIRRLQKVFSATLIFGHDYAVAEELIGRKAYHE

O=C1C=C2C(=CCOC2O)O1 (stereo not shown) [patulin]
Km: 377 ± 112 µM
